# Patent US7910755B2, “Stem cell expansion and uses” (priority 2004, dated 2011)
# Assays:
# [1] = test system: lethally-irradiated female B6D2F1 mice; experiment: Survival of lethally-irradiated mice (10 Gy total body irradiation, 137Cs); assay type: in vivo; details: groups of 12
# Description: Exposure of rodents to ionizing radiation exposure. The effect of selected F1Cs on survival of lethally-irradiated female B6D2F1 mice were compared to control animals treated with vehicle alone. The animals were exposed to 10 Gy of total body irradiation at 2.5 Gy/min using a ^137Cs source. […] For Group 4, test article was administered as a 50 μL volume, by intramuscular injection for three consecutive days. The formulation was a suspension containing 0.1% w/v carboxymethyl-cellulose, 0.9% w/v sodium chloride and 0.05% v/v phenol. The formulations were agitated to uniformly resuspend the F1C before syringing, and injected into animals within a few minutes of drawing into the syringe to prevent settling in the syringe.
# The groups of animals were treated as follows.
# [2] = test system: Macaca mulatta (Rhesus monkey) exposed to 6 Gy γ-radiation
# Description: Treatment of whole body lethal radiation and characterization of mortality surrogate markers. Two groups of 10 Macaca mulatta (Rhesus monkey) were exposed to a 6 Gy dose of γ-radiation from a ^60Co source. This dose is an LD50/30 dose for this species. […] The age range was 1.75-5.0 years at the onset of treatment.
# Test article was an aqueous suspension in vehicle. The vehicle article consists of a solution of sodium chloride (0.9% w/v), carboxymethylcellulose (0.5% w/v), polysorbate 80 (2% v/v), benzalkonium chloride (0.02% v/v) and sodium phosphate (10 mM, pH 6.5). Immediately prior to drawing into a syringe, the test article formulation was briefly vortexed to uniformly distribute sedimented test article. Once drawn into a syringe, the test article was administered within 10 minutes. Just prior to injection, the syringe containing the test article was rotated end-over-end to uniformly disperse the compound.
# Whole body radiation. The animals were exposed to ionizing as follows. Dosimetry measurements using phantoms, the dose rate and duration of irradiation and the actual time of irradiation for each individual animal was recorded. Animals were fasted overnight prior to whole-body irradiation and fed upon return to the housing facility. Animals were transferred to the treatment facility in a transport vehicle with controlled environment. During transportation, each animal was individually housed in a stainless steel squeeze back cage. Temperature in the transport vehicle was automatically recorded every 5 minutes during transportation. Clinical signs were monitored immediately before and after transportation.
# The animals received a midline treatment dose of 600 cGy. The dose rate of the ^60Co gamma source was about 60 cGy per minute and the actual rate was recorded for each animal. To obtain a homogenous dose distribution, the radiation treatment was divided in two parts. First, the animal received half of the dose by anteroposterior irradiation. The second half of the dose was delivered by posteroanterior irradiation. Once the treatment was completed, animals were returned to the transport vehicle and transported to the housing facility. The radiation dose was calibrated using an acrylic phantom placed in the same experimental set up that was used for animal irradiation.
# The animals received the vehicle control once daily for five consecutive days by intramuscular injections. The first injection on day 1 was administered at 2-3 hours after irradiation. The dose volume was 0.15 mL/kg for all animals. The dose volume was evenly divided between two distinct sites (approximately 0.075 mL/kg per site). The actual volume delivered was calculated and adjusted based on each animal's body weight.
# During the pre-treatment period cage side observations of clinical signs were performed once daily. A detailed clinical examination was performed on all animals once prior to irradiation on day 1, day 9, weekly thereafter and at day 40 and 41. After radiation, the animals and clinical signs were observed twice a day during the protocol or as often as deemed necessary. Moribund animals were euthanized for humane reasons.
# [3] = test system: female BALB/cByJ mice, DTH response to topical oxazolone challenge; experiment: Modulation of delayed type hypersensitivity (oxazolone ear challenge); assay type: in vivo; details: difference right minus left ear, 24 hours following oxazolone challenge; vehicle alone 0.225 mm
# Description: Modulation of delayed type hypersensitivity. The capacity of F1Cs to modulate delayed type hypersensitivity (DTH) is determined in mice. Groups of five female BALB/cByJ mice (20-25 grams) are anesthetized and 100 μL of a 3% solution of oxazolone is applied on day 0 to the shaved abdomen and dried. Seven days later, on day 7, the mice are challenged by applying 5 μL of oxazolone topically to each side of the right ear. The F1C (at about 20-100 mg/mL) in vehicle is administered by subcutaneous injection (2 mg/day) one time on day 6, 24 hours before the oxazolone challenge. The vehicle as a non-aqueous suspension of the F1C in, e.g., 2% benzyl alcohol w/v, 0.1% Brij 96 w/v and equal volumes of PEG 300 and propylene glycol.
# Dexamethasone in saline (0.2 mg/mL) is administered daily for 9 days (day −1 to 7), first dose 24 hours before sensitization, last dose at challenge by subcutaneous injection (0.01 mg/dose, 50 μl/injection). On Day 8, 24 hours following the oxazolone challenge, both the right and left ear thicknesses are measured using a micrometer caliper and the differences are determined. The differential ear thickness is measured as an indicator of the DTH response to topical oxazolone challenge. The DTH response is expressed as the difference in the thickness (mm) between the right and the left ears for each animal.
# [4] = day 6, 0.6 mg s.c. daily for 3 days
# [5] = day 7, 0.6 mg s.c. daily for 3 days
# [6] = day 12, 0.6 mg s.c. daily for 3 days
# [7] = day 21, 0.6 mg s.c. daily for 3 days
smiles,measurement,setting,value
"C[C@]12CC[C@H]3[C@@H](CC=C4C[C@@H](O)CC[C@@]43C)[C@@H]1CC[C@@H]2O [3β,17β-dihydroxyandrost-5-ene]",number of surviving animals,"[1]; day 6, 0.6 mg i.m. daily for 3 days",12
same,number of surviving animals,[1]; [4],12
same,number of surviving animals,"[1]; day 6, 3.0 mg s.c. daily for 3 days",12
same,number of surviving animals,"[1]; day 7, 0.6 mg i.m. daily for 3 days",12
same,number of surviving animals,[1]; [5],11
same,number of surviving animals,"[1]; day 7, 3.0 mg s.c. daily for 3 days",12
same,number of surviving animals,"[1]; day 12, 0.6 mg i.m. daily for 3 days",11
same,number of surviving animals,[1]; [6],10
same,number of surviving animals,"[1]; day 12, 3.0 mg s.c. daily for 3 days",9
same,number of surviving animals,"[1]; day 21, 0.6 mg i.m. daily for 3 days",9
same,number of surviving animals,[1]; [7],7
same,number of surviving animals,"[1]; day 21, 3.0 mg s.c. daily for 3 days",7
same,number of animals having febrile severe neutropenia (>40.4° C. and absolute neutrophil count less than 500 cells/μL),"[2]; 15 mg/kg i.m. for 5 days, group of 10, at some time during the protocol",2
same,"days of severe thrombocytopenia (less than 20,000 platelets/μL) experienced collectively","[2]; 15 mg/kg i.m. for 5 days, group of 10, vehicle 51 days, p=0.009",32 days
same,median days of febrile severe neutropenia,"[2]; 15 mg/kg i.m. for 5 days, vehicle median 5 days, p=0.037",0 days
same,animals survived,"[2]; 15 mg/kg i.m. once per day for 5 days, 40 days",9 of 10
same,Mortality,"[2]; 15 mg/kg i.m. once per day for 5 days, control group 40%",10%
"C[C@]12CC[C@H]3[C@@H](CC=C4C[C@@H](O)CC[C@@]43C)[C@@H]1CC[C@@H]2N [3β-hydroxy-17,7-aminoandrost-5-ene]",number of surviving animals,[1]; [4],12
same,number of surviving animals,[1]; [5],12
same,number of surviving animals,[1]; [6],12
same,number of surviving animals,[1]; [7],11
O=P1(N(CCCl)CCCl)NCCCO1 (centres unmarked) [cyclophosphamide],differential ear thickness (DTH response),[3],0.092 mm
C[C@@H]1C[C@H]2[C@@H]3CCC4=CC(=O)C=C[C@]4(C)[C@@]3(F)[C@@H](O)C[C@]2(C)[C@@]1(O)C(=O)CO [dexamethasone],differential ear thickness (DTH response),[3],0.144 mm
